Test results taken from the NIST ThermoML archive (doi:10.1021/je0302248).
Numbers after ± are expanded uncertainties.

Details: Liquid

CCO [ethanol]
vapor or sublimation pressure (319.5 K): 24 ± 7.2 kPa
vapor or sublimation pressure (336.5 K): 53.32 ± 16 kPa

CCO[Si](OCC)(OCC)OCC [tetraethoxysilane]
vapor or sublimation pressure (393.4 K): 24 ± 7.2 kPa
vapor or sublimation pressure (419.2 K): 53.32 ± 16 kPa
